Reference: patent publication US11345701B1, “KRAS mutant protein inhibitors” (Jacobio Pharmaceuticals Co., Ltd., priority 2021, dated 2022)

Experiment: Cynomolgus monkey pharmacokinetic study
Type: in vivo
Conditions: for CL / VSS / AUC0-24h / Cmax / Oral BA (F %): cynomolgus monkey; for CL / VSS: 1 mg/kg, iv; for AUC0-24h / Cmax / Oral BA (F %) / AUC0-24 h relative to the control compound Amg-510: 3 mg/kg, po
Protocol: The purpose of this study was to evaluate the pharmacokinetic properties of compounds in cynomolgus monkey following single dose administration. The day before administration, monkeys were fasted overnight and free access to water. Four monkeys are needed for each compound and the four monkeys were divided into two groups, group A and group B (one male (♂) and one female (♀) in each group). Monkeys in group A were treated with a single 1 mg/kg dose of compound (iv). Monkeys in group B were treated with a single 3 mg/kg dose of compound (po). For monkeys in group A, blood samples were collected at pre-dose, and at the time point of 0.083, 0.25, 0.5, 1, 2, 4, 6, 8 and 24 h post-dose. For monkeys in group B, blood samples were collected at pre-dose, and at the time point of 0.25, 0.5, 1, 2, 4, 6, 8 and 24 h post-dose. Blood samples were placed on ice until centrifugation to obtain plasma samples. The plasma samples were stored at −80° C. until analysis. The concentration of compound in plasma samples was determined using a LC-MS/MS method.

Work on `C=CC(=O)N1CCN(c2nc(=O)n(-c3c(C)ccnc3C(C)C)c3nc(-c4c(N)c(F)c(F)c(F)c4F)c(F)cc23)[C@@H](C)C1` (atropisomer, axis not shown; (M)) [Compound 2-1, (M)-4-((S)-4-acryloyl-2-methylpiperazin-1-yl)-7-(2-amino-3,4,5,6-tetrafluorophenyl)-6-fluoro-1-(2-isopropyl-4-methylpyridin-3-yl)pyrido[2,3-d]pyrimidin-2(1H)-one] yielded a CL (female) of 8.20 mL/min/kg, a VSS (female) of 0.507 L/kg and an AUC0-24h (female) of 2494 ng·h/mL. For the same molecule, the Cmax (female) was 1060 ng/mL, the “Oral BA (F %)” value (female) was 41.2% and the CL (male) was 8.26 mL/min/kg. It also gave a VSS (male) of 0.555 L/kg, an AUC0-24h (male) of 3253 ng·h/mL and a Cmax (male) of 1580 ng/mL. For the same molecule, the “Oral BA (F %)” value (male) was 54.1%, the “AUC0-24 h relative to the control compound Amg-510” value (female cynomolgus monkey) was “more than 10 times” and the “AUC0-24 h relative to the control compound Amg-510” value (male cynomolgus monkey) was “more than 15 times”. The “Pharmacokinetic properties in words” value (monkey model) was “excellent pharmacokinetic properties”.
